Test results: US20210353749A1, “GUANABENZ AS AN ADJUVANT FOR IMMUNOTHERAPY” (UNIVERSITÉ CATHOLIQUE DE LOUVAIN, priority 2018, published 2021)

Columns and labels:
[1] = test system: TiRP tumor; test: TiRP melanoma model, drug alone; type: in vivo, mouse; conditions: 5 mg/kg i.p. daily from tumor size around 400 mm^3 (day 0) to day 12, vs vehicle; FIG. 3
Source text: TiRP mice: TiRP mice have been created by crossing Ink4a/Arf^flox/flox mice with mice carrying a transgenic construct controlled by the tyrosinase promoter and driving the expression of H-Ras^12V and Trap1a which encodes a MAGE-type tumor antigen P1A; the promoter is separated from the coding region by a stop cassette made of a floxed self-deleting CreER (Huijbers et al., 2006, Cancer Res 66, 3278-3286). Those mice were backcrossed to a B10.D2 background and bred to homozygosity. TCRP1A mice heterozygous for the H-2Ld/P1A35-43-specific TCR transgene were kept on the B10.D2; Rag1^−/− background (Shanker et al., 2004, J Immunol 172, 5069-5077). All mice used in this study were produced under specific pathogen free (SPF) conditions at the animal facility of the Ludwig Institute for Cancer Research. All the rules concerning animal welfare have been respected according to the 2010/63/EU Directive. […]
A fresh solution of 40H-Tamoxifen was prepared by dissolving 40H-Tamoxifen (Imaginechem) in 100% ethanol and mineral oil (ratio 1:9) followed by 30-min sonication, and injected subcutaneously (2 mg/200 μL per mouse) in the neck area of gender-matched 7 weeks old TiRP mice. Tumor appearance was monitored daily and tumors were measured three times/week. Tumor volume (in mm^3) was calculated by the following formula: Volume=width^2×length/2. […]

[2] = test system: TiRP tumor; test: TiRP melanoma model with adoptive cell transfer of naïve P1A-specific CD8+ T cells; type: in vivo, mouse; conditions: guanabenz 5 mg/kg i.p. daily with ACT of 2 million naïve T cells, 4 days after the ACT, vs control; FIG. 6
Experimental: FIG. 6 is a histogram showing the tumor infiltration of P1A-specific CD8^+ T cells evaluated 4 days after ACT of naïve TCRP1A CD8^+ T cells by FACS in mice that received guanabenz (5 mg/kg, i.p.) or vehicle (PBS, i.p.). In the preceding experiments, before being transferred to TiRP-tumor bearing mice, the P1A-specific CD8^+ T were pre-activated in vitro by co-culture with irradiated L1210-P1A-B7.1 cells as described hereinabove. […] TiRP-tumor bearing mice were administered an adoptive cell transfer (ACT) of 2 million of naïve P1A-specific CD8^+ T cells and daily injections of guanabenz from the day of the ACT. […] Thus, when the mice were administered guanabenz, the transferred naïve CD8^+ T cells were properly primed and populated the tumor.

[3] = test system: IFNγ producing CD8+ T cells; test: Immunization with ovalbumin; type: in vivo, C57BL/6J mice; conditions: 100 μg (5 mg/kg) guanabenz with OVA/Alhydrogel, vs non-immunized control
Experimental: Immunization with Ovalbumin: C57BL/6J mice were immunized once by intraperitoneal (i.p.) injection of 200 ug of OVA protein adsorbed onto Alhydrogel adjuvant 2% (Sigma) These mice were administered 100 μg (5 mg/kg) of guanabenz 2 hours before the immunization and daily after the immunization. […] Intracellular IFNγ staining: one week after the immunization, the blood and spleen of each mouse were collected. Cells derived from the spleen and blood of each immunized mouse were cultured for 1 hour in 96 well U bottomed plates at 37° C. in the presence of 10 μM OVA peptide. Brefeldin A (10 μg/mL) was added to each well and the cells were incubated for an additional 4 hours. The immune response of each mouse was evaluated by measuring the amount of IFNγ producing CD8^+ T cells using antibodies against CD8 and IFNγ. Samples were then examined by FACS Fortessa flow cytometry.

[4] = test system: Mouse NK cells; test: In vitro NK cell function (CD107a degranulation); type: cell-based; conditions: guanabenz 20 μM, 16 hours, RMA-S target cells; FIG. 10
Experimental: Mouse NK cells: murine NK cells were isolated from mouse splenocytes using anti-CD49b magnetic beads. Murine NK cells were isolated from mouse splenocytes using anti-CD49b magnetic beads and were activated in vitro by co-incubation with irradiated RMA-S cells. 4 days after activation, they were collected and plated at 50,000 cells per well in a 96 U plate with 20 μM of guanabenz and incubated at 37° C. overnight prior to their use in the assay on the next day. On the day of the assay, the culture supernatant was removed from the cells and the cells were washed once with complete medium to remove the drug. The target cells (RMA-S cells) were added to the wells at a ratio of 1:1. Control wells containing either only NK cells or target cells were also included for each plate. CD107a-APC was added to each well at the same time as addition of the target cells. The plate was then incubated at 37° C. for 90 minutes. At the end of the incubation period the cells were harvested and washed once with PBS. They were stained with anti-mouse CD49b-PE antibody for 15 minutes. The cells were then washed and resuspended in PBS and analyzed using FACS Fortessa flow cytometer.

`NC(N)=N/N=C/c1c(Cl)cccc1Cl` [guanabenz, 2-[(E)-(2,6-dichlorophenyl)methylideneamino]guanidine] was tested, and the TiRP tumor growth [1] was “inhibitory effect”, the “tumor infiltration of P1A-specific CD8+ T cells” value [2] was “significantly increased” and the “percentage of IFNγ producing CD8+ T cells among total CD8+ T, blood” value ([3]; blood cells with 10 μM OVA peptide, FIG. 8A) was “significant increase”. For the same compound, the “percentage of IFNγ producing CD8+ T cells among total CD8+ T, spleen” value ([3]; spleen cells with 10 μM OVA peptide, FIG. 8B) was “significant increase” and the “NK cell degranulation (FACS detection of CD107a)” value [4] was “significantly increased”.
